pIC50: −log10 of the molar value. ≈ marks a conversion by molar mass, not a printed value. Like-named read-outs stand apart in the source and are kept apart here.
How the values were obtained:
[1] = tested on: rifampicin-resistant S. aureus; assay: MIC, broth microdilution assay; format: cell-based; conditions: Staphylococcus aureus, read-out: MIC rif^R -S. aureus
Procedure: (§1) The antimicrobial activity of a compound or formulation according to the invention is determined by exposing a culture comprising a bacterial species to different concentrations of the compound or formulation and monitoring the effects on growth relative to a control culture not exposed to the compound. Any method known in the art may be used to assess bacterial growth. Antimicrobial effects are expressed as Minimal Inhibitory Concentration (MIC) and Minimum Bactericidal Concentration (MBC).
(§2) The MIC may be expressed as a range between the concentration at which no growth is observed and the concentration of the dilution which immediately follows.
(§3) Typically, MIC is measured using a broth microdilution assay as follows. Dilution of candidate antimicrobial compounds in culture medium is performed in a sterile, covered 96-well microtiter plate with flat bottom wells (Costar #9017). The final concentrations of the compounds are typically 100, 50, 25, 12.5, 6.25, 3.12, 1.56, 0.78, 0.39, 0.20, 0.10, and 0.05 μg/mL, respectively. Culture medium only (containing no bacteria) is also included as a negative control for each plate. Ampicillin and rifampin are used as positive controls against all bacterial strains in every experiment.
(§4) The overnight culture of a single colony is diluted in sterile medium so that, after inoculation, each well contains approximately 5×10^5CFU/mL. Within 15 minutes of preparation, […] of the adjusted inoculum suspension is added to the microliter plate. Each well is diluted with an equal volume of the antimicrobial compounds or control solution. The inoculated microtiter plate is typically incubated at 35° C. for 16-20 hours. The turbidity of each well is determined by measuring the absorbance at 595 nm using a BioRad Model 3550-UV microplate reader.
(§5) The antimicrobial activities of the compounds of the invention, expressed as MIC and MBC, were determined as described above, using as tester strains wild-type S. aureus, rifampicin-resistant S. aureus, wild-type E. coli, and E. coli cells that had been permeabilized.

[2] = tested on: wild-type S. aureus; assay: MIC, broth microdilution assay; format: cell-based; conditions: Staphylococcus aureus
Procedure: as §1, §2, §3, §4, §5

[3] = tested on: wild-type E. coli; assay: MIC, broth microdilution assay; format: cell-based; conditions: Escherichia coli
Procedure: as §1, §2, §3, §4, §5

[4] = tested on: E. coli cells that had been permeabilized; assay: MIC, broth microdilution assay; format: cell-based; conditions: Escherichia coli, read-out: MIC E. coli*
Procedure: Within 15 minutes of preparation, […] of the adjusted inoculum suspension is added to the microliter plate.

[5] = molecular target: human pol II (Homo sapiens, UniProt P24928+P30876); assay: in vitro transcription reaction, RNA polymerase inhibition; format: biochemical
Procedure: RNA polymerase inhibition activity of a compound can be detected by including the compound in an in vitro transcription reaction and comparing the level of transcription that occurs in the presence and absence of the compound. The RNA polymerase may be from a bacterial source or, as a control, from an animal source. […] UTP; 400 μM each of ATP, GTP, and CTP; and RNA polymerase. After incubation for 60 minutes at 25° C., the reaction is terminated with 100 μl 10% TCA, which also precipitates the newly transcribed RNA, and incorporation of radioactivity into RNA is quantified.
In vitro and/or in vivo criteria may used to determine specificity. That is, the inhibitory activity of a particular compound towards an animal RNA polymerase may be measured in parallel with a bacterial RNA polymerase.
(§6) The compounds of the invention were included at a range of concentrations in in vitro transcription reactions containing purified RNA polymerase derived from either S. aureus, E. coli, or human, and template DNA comprising a pTaq promoter. The reaction conditions and analytical method are described above.

[6] = tested on: wild-type S. aureus; assay: MBC determination; format: cell-based; conditions: Staphylococcus aureus
Procedure: as §1
(§7) The minimum bactericidal concentration (MBC) is defined as the concentration of antimicrobial agent from which no colonies grow on petri plates or in the medium. […] Typically, the wells from a MIC microliter plate are made using a 96-well inoculation grid into a fresh microliter plate containing 100 μL Mueller-Hinton broth per well. The MBC plates are incubated at 37° C. for 16-20 hrs and the MBC values are determined.
as §5

[7] = tested on: E. coli cells that had been permeabilized; assay: MBC determination; format: cell-based; conditions: Escherichia coli
Procedure: as §1, §7, §5

[8] = tested on: wild-type E. coli; assay: MBC determination; format: cell-based; conditions: Escherichia coli
Procedure: as §1, §7, §5

[9] = molecular target: purified RNA polymerase derived from E. coli (Escherichia coli, UniProt P0A7Z4+P0A8T7+P0A8V2); assay: in vitro transcription reaction, RNA polymerase inhibition; format: biochemical
Procedure: (§8) RNA polymerase inhibition activity of a compound can be detected by including the compound in an in vitro transcription reaction and comparing the level of transcription that occurs in the presence and absence of the compound. The RNA polymerase may be from a bacterial source or, as a control, from an animal source. A typical transcription reaction (50μl) contains transcription buffer (50 mM Tris-HCl, pH 8.0, 200 mM KCl, 10 mM MgCl2,10 mM DTT and 1.5 μM BSA); 1 μg of DNA template; 4 μM UTP containing 5 μCi of [α-^2-32 P] UTP; 400 μM each of ATP, GTP, and CTP; and RNA polymerase. After incubation for 60 minutes at 25° C., the reaction is terminated with 100 μl 10% TCA, which also precipitates the newly transcribed RNA, and incorporation of radioactivity into RNA is quantified. The IC50 (expressed in μg/ml) is the concentration of a compound that inhibits RNA polymerase activity by 50%.
as §6

[10] = molecular target: purified RNA polymerase derived from S. aureus; assay: as above; format: biochemical
Procedure: as §8, §6

Chain of purified RNA polymerase derived from E. coli (P0A8V2 whole entry): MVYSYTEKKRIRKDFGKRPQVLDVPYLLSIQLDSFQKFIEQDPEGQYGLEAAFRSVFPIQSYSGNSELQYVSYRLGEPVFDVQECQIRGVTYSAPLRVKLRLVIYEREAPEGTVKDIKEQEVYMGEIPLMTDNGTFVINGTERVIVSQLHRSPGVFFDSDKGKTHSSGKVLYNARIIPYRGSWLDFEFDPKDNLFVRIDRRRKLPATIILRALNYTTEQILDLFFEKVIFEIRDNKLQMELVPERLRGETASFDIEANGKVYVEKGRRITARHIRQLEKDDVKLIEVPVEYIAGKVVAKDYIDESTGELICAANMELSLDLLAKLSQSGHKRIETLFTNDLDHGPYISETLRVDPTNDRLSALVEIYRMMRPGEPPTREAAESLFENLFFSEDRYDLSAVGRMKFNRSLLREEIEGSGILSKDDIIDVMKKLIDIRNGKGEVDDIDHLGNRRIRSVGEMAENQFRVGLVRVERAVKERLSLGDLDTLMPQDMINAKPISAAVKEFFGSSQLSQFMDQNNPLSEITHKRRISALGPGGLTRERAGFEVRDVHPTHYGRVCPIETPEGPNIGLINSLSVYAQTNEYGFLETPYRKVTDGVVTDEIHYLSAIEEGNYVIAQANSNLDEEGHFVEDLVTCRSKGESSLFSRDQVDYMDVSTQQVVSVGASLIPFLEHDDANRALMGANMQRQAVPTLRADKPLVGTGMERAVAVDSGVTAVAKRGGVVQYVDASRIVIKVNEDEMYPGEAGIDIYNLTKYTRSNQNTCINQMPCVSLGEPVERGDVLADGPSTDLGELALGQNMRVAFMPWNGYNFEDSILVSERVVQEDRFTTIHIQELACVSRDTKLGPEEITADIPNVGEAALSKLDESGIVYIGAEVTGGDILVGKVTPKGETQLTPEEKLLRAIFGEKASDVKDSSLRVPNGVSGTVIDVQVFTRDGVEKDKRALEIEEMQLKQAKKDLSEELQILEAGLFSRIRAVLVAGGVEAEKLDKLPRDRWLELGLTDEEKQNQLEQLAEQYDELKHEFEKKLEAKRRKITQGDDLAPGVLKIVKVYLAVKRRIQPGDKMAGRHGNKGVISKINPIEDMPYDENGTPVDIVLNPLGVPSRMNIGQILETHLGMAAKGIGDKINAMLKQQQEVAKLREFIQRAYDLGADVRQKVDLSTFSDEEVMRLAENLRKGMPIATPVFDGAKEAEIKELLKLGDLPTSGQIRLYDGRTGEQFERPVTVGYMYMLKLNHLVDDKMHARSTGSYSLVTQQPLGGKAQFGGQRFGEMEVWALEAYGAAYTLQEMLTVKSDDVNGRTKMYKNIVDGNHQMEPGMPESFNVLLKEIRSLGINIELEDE
Chain of purified RNA polymerase derived from E. coli (P0A8T7 whole entry): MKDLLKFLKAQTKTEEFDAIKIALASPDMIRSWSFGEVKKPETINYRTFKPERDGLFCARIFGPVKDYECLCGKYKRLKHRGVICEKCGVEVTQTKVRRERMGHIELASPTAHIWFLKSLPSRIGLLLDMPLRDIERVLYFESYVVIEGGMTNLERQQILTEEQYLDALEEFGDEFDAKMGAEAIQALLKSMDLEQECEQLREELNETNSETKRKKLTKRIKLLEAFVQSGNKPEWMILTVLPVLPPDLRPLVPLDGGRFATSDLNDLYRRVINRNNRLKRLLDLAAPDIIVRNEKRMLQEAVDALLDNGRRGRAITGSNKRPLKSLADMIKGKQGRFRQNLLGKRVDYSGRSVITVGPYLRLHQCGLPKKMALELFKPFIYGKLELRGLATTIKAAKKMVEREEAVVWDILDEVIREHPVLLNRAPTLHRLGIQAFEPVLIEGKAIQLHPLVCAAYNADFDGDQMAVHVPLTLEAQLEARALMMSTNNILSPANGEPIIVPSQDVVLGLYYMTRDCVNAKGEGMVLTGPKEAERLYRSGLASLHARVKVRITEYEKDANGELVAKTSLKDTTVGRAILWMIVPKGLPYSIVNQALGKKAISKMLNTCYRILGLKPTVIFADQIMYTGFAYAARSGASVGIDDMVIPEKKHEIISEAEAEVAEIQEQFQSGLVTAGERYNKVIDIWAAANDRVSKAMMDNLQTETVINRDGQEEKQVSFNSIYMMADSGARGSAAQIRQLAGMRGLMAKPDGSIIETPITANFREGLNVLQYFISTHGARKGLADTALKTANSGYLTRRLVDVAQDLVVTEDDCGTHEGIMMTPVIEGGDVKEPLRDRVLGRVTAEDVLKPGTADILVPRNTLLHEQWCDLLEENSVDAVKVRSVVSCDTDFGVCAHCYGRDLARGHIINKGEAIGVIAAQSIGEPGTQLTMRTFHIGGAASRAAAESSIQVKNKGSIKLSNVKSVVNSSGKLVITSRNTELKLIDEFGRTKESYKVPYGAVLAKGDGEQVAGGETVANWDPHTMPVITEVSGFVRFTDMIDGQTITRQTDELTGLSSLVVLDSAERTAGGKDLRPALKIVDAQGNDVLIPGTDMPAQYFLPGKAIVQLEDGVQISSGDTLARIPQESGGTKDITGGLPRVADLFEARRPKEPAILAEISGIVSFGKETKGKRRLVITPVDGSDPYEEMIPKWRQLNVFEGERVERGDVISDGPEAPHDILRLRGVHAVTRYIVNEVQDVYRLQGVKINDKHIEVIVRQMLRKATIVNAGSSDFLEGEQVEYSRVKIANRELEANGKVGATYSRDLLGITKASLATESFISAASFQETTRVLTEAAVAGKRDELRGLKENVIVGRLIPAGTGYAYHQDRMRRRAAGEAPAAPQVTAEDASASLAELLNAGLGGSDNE
Chain of purified RNA polymerase derived from E. coli (P0A7Z4 whole entry): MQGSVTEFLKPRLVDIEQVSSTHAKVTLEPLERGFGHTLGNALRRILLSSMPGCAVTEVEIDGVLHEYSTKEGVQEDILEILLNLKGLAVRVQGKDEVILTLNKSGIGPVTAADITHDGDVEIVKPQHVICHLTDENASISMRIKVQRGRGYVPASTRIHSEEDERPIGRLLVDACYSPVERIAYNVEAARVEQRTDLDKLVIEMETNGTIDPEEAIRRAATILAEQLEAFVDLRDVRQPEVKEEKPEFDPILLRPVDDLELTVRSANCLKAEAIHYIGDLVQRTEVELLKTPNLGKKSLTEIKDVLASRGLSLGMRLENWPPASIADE

SMILES: CC1(C)S[C@@H]2[C@H](NC(=O)[C@H](N)c3ccccc3)C(=O)N2[C@H]1C(=O)O [Amp, Ampicillin, reference compound]
- MIC [1]: 4 µg/mL (≈ 11.4 µM)
- MIC [2]: 8 µg/mL (≈ 22.9 µM)
- MIC [3]: 2 µg/mL (≈ 5.72 µM)

SMILES: CO[C@H]1/C=C/O[C@@]2(C)Oc3c(C)c(O)c4c(O)c(c(/C=N/N5CCN(C)CC5)c(O)c4c3C2=O)NC(=O)/C(C)=C\C=C\[C@H](C)[C@H](O)[C@@H](C)[C@@H](O)[C@@H](C)[C@H](OC(C)=O)[C@@H]1C [Rif, rifampin, reference compound]
- MIC [1]: > 64 µg/mL
- MIC [2]: < 0.03 µg/mL
- MIC [3]: 4 µg/mL (≈ 4.86 µM)
- MIC [4]: < 0.03 µg/mL

SMILES: NCCNc1ccc([N+](=O)[O-])c(NCCOc2ccccc2)c1 [Compound (A), N^1-(2-aminoethyl)-4-nitro-N^3-(2-phenoxyethyl)-1,3-benzenediamine]
- MIC [1]: 13 µg/mL (≈ 41.1 µM)
- MIC [2]: 6 µg/mL (≈ 19 µM)
- MIC [3]: 13 µg/mL (≈ 41.1 µM)
- selectivity for bacterial RNA polymerase relative to human RNA polymerase ([5]; bacterial (S. aureus, E. coli) versus human RNA polymerase): highest degree of selectivity
- IC50 ([5]; pTaq promoter template DNA, 60 minutes at 25° C., read-out: IC50 human pol II (converted)): 316 µM
- MBC [6]: 25 µg/mL (≈ 79 µM)
- MBC [7]: 25 µg/mL (≈ 79 µM)
- MBC [8]: 50 µg/mL (≈ 158 µM)
- IC50 ([9]; pTaq promoter template DNA, 60 minutes at 25° C., read-out: IC50 E. coli RNA polymerase (converted)): 25.3 µM
- IC50 ([10]; pTaq promoter template DNA, 60 minutes at 25° C., read-out: IC50 S. aureus RNA polymerase (converted)): 12.6 µM

SMILES: NCCNc1ccc([N+](=O)[O-])c(N2CCN(c3ccc([N+](=O)[O-])cc3)CC2)c1 [Compound (B)]
- MIC [1]: 2 µg/mL (≈ 5.18 µM)
- MIC [2]: 1 µg/mL (≈ 2.59 µM)
- MIC [3]: 8 µg/mL (≈ 20.7 µM)
- MIC [4]: 4 µg/mL (≈ 10.4 µM)
- pIC50 [5]: 3.98
- MBC [6]: 8 µg/mL (≈ 20.7 µM)
- MBC [7]: 2 µg/mL (≈ 5.18 µM)
- MBC [8]: 32 µg/mL (≈ 82.8 µM)
- pIC50 [9]: 4.63
- pIC50 [10]: 4.98
